# Data from patent US5773019A, “Implantable controlled release device to deliver drugs directly to an internal portion of the body” (The University of Kentucky Research Foundation, priority 1995, dated 1998).
# Legend:
# [1] = In vitro release of ciprofloxacin from device (HPLC); assay type: physicochemical
# Method: Ciprofloxacin is normally supplied as the HCl salt. […] A 5% solution of PLA was used as a "glue" to fix a 7-0 nylon suture to the pellet.
# Release from these devices was determined at 37° C. by immersion in 1 ml of phosphate buffer (pH 7.4) or a solution composed of 20% serum: 80% phosphate buffer. […] Samples were again assayed by HPLC.
# eye [2] = assay: Ocular safety of ciprofloxacin device (ERG, slit lamp, indirect biomicroscopy)
# most pathogens = settings: cited from earlier work
# eye [3] = assay: ERG toxicity of retinoic acid implant sutured onto sclera; assay type: in vivo; settings: 12 mg disc in silicone on sclera, 3 rabbits, ERG weekly for 5 weeks
# Method: A device according to the present invention was prepared. This device was composed of a 3 mm, 12 mg disc of retinoic acid encased in silicone. It resembles FIG. 3 in appearance. The implant was prepared by preparing a thin film of silicone. A 2.5 mm hole was then cut through the film and the retinoic acid pellet fixed directly over the hole using silicone. A loop of Prolene suture was placed over the pellet and fixed onto the surface of the film so that a "gap" of over 1 mm was present between the pellet and the suture all the way around. The entire assembly was then coated again in silicone. These pellets were sutured onto the surface of the sclera in 3 rabbits and the ERGs taken every week for 5 weeks.
SMILES,"linearity of release ([1]; 37° C., 6 days, phosphate buffer pH 7.4 or 20% serum)",effect of serum concentration on release ([1]; phosphate buffer pH 7.4 vs 20% serum),"linearity of release ([1]; separate study, twenty day period)",slit lamp examination (eye [2]; 7 and 14 days),indirect biomicroscopy (eye [2]; implanted eyes),ERG waveforms or amplitudes (eye [2]; pre- vs post-implantation),persistence of drug particles in subconjunctival space (5 mg subconjunctival suspension injection) [days],linearity of release in the vitreous (explanted devices),mean release rate in the vitreous (explanted devices) [µg/h],mean device duration (from mean release rate) [weeks],MIC90 (most pathogens) [µg/mL],toxicity (ERG) (eye [3])
O=C(O)c1cn(C2CC2)c2cc(N3CCNCC3)c(F)cc2c1=O [ciprofloxacin],linear over the duration of the study,relatively independent of serum concentration,linear over a twenty day period,mild vitreous cell at 7 days that had resolved by 14 days,devices to be stable with no migration and no retinal detachment,no significant difference in the pre- and post-implantation waveforms or amplitudes,7,linear while in the vitreous,2.5,4,1,
CC1=C(/C=C/C(C)=C/C=C/C(C)=C/C(=O)O)C(C)(C)CCC1 [retinoic acid],,,,,,,,,,,,no evidence of toxicity
